Results reported in US20210322395A1, “METHOD TO PREVENT AND TREAT HEARING LOSS BY CALCIUM CHANNEL BLOCKERS, ANGIOTENSIN CONVERTING ENZYME INHIBITORS, AND ANGIOTENSIN RECEPTOR BLOCKERS” (priority 2018, published 2021).

Columns and labels:
hearing loss [1] = experiment: Treatment of hearing loss in a patient, one ear treated, other ear untreated; format: in vivo, human
Text: A patient is diagnosed with hearing loss of the same magnitude in both ears. A composition comprising the calcium channel blocker nifedipine is directly applied to the external ear space of one ear while the other ear is left untreated. […] A patient is diagnosed with hearing loss of the same magnitude in both ears. A composition comprising the ACE inhibitor enalapril is directly applied to the external ear space of one ear while the other ear is left untreated. […] A patient is diagnosed with hearing loss of the same magnitude in both ears. A composition comprising the angiotensin receptor blocker losartan is directly applied to the external ear space of one ear while the other ear is left untreated. […] A patient is diagnosed with hearing loss of the same magnitude in both ears. A composition comprising the calcium channel blocker nifedipine is administered by injection into the middle ear space of one ear while the other ear is left untreated. […] A patient is diagnosed with hearing loss of the same magnitude in both ears. A composition comprising the ACE inhibitor enalapril is administered by injection into the middle ear space of one ear while the other ear is left untreated. […] A patient is diagnosed with hearing loss of the same magnitude in both ears. A composition comprising the angiotensin receptor blocker losartan is administered by injection into the middle ear space of one ear while the other ear is left untreated. […] A patient is diagnosed with hearing loss of the same magnitude in both ears. A composition comprising the calcium channel blocker nifedipine is administered by injection into the inner ear space of one ear while the other ear is left untreated. […] A patient is diagnosed with hearing loss of the same magnitude in both ears. A composition comprising the ACE inhibitor enalapril is administered by injection into the inner ear space of one ear while the other ear is left untreated. […] A patient is diagnosed with hearing loss of the same magnitude in both ears. A composition comprising the angiotensin receptor blocker losartan is administered by injection into the inner ear space of one ear while the other ear is left untreated.

hearing loss [2] = experiment: Prevention of recurrence of hearing loss in a successfully treated patient, one ear treated, other ear untreated; format: in vivo, human; conditions: patient after successful treatment, untreated side again exhibits symptoms
Text: A composition comprising the calcium channel blocker nifedipine is directly applied to the external ear space of one ear while the other ear is left untreated. […] A composition comprising the ACE inhibitor enalapril is directly applied to the external ear space of one ear while the other ear is left untreated. […] A composition comprising the angiotensin receptor blocker losartan is directly applied to the external ear space of one ear while the other ear is left untreated. […] A composition comprising the calcium channel blocker nifedipine is administered by injection into the middle ear space of one ear while the other ear is left untreated. […] A composition comprising the ACE inhibitor enalapril is administered by injection into the middle ear space of one ear while the other ear is left untreated. […] A composition comprising the angiotensin receptor blocker losartan is administered by injection into the middle ear space of one ear while the other ear is left untreated. […] A composition comprising the calcium channel blocker nifedipine is administered by injection into the inner ear space of one ear while the other ear is left untreated. […] A composition comprising the ACE inhibitor enalapril is administered by injection into the inner ear space of one ear while the other ear is left untreated. […] A composition comprising the angiotensin receptor blocker losartan is administered by injection into the inner ear space of one ear while the other ear is left untreated.

[3] = composition directly applied to the external ear space of one ear
[4] = composition injected into the inner ear space of one ear
[5] = composition injected into the middle ear space of one ear

SMILES | hearing loss of treated ear compared to untreated ear (hearing loss [1]; [3]) | hearing loss of treated ear compared to untreated ear (hearing loss [1]; [4]) | hearing loss of treated ear compared to untreated ear (hearing loss [1]; [5]) | level of hearing of treated ear after a period of time (recurrence of hearing loss) (hearing loss [2]; [3]) | level of hearing of treated ear after a period of time (recurrence of hearing loss) (hearing loss [2]; [4]) | level of hearing of treated ear after a period of time (recurrence of hearing loss) (hearing loss [2]; [5])
CCOC(=O)[C@H](CCc1ccccc1)N[C@@H](C)C(=O)N1CCC[C@H]1C(=O)O [enalapril] | reduced hearing loss | reduced hearing loss | reduced hearing loss | maintained the level of hearing | maintained the level of hearing | maintained the level of hearing
CCCCc1nc(Cl)c(CO)n1Cc1ccc(-c2ccccc2-c2nn[nH]n2)cc1 [losartan] | reduced hearing loss | reduced hearing loss | reduced hearing loss | maintained the level of hearing | maintained the level of hearing | maintained the level of hearing
